Assay results reported in the SangsterLogP compilation.

Row | SMILES | logP
1 | Nc1ccc(S(=O)(=O)Nc2ncccc2Cl)cc1 | 0.82
2 | Nc1ccc(S(=O)(=O)Nc2cccnc2Cl)cc1 | 1.58
3 | Nc1ccc(S(=O)(=O)Nc2ccc(Cl)cn2)cc1 | 1.82
4 | CN(C)c1ccc(NS(=O)(=O)c2ccc(N)cc2)nc1 | 1.23
5 | Cc1ccccc1NS(=O)(=O)c1ccc(N)cc1 | 2.03
6 | Nc1ccc(S(=O)(=O)Nc2ccc(Br)cn2)cc1 | 2.3
7 | Cc1cnc(NS(=O)(=O)c2ccc(N)cc2)c(Br)c1 | 1.79
8 | Nc1ccc(S(=O)(=O)Nc2ccccc2Cl)cc1 | 2
9 | Nc1ccc(S(=O)(=O)Nc2ccc(Cl)nc2)cc1 | 2.24
10 | Nc1ccc(S(=O)(=O)Nc2ncc(Br)cc2Br)cc1 | 2.74
11 | Cc1cnc(NS(=O)(=O)c2ccc(N)cc2)nc1 | 0.17
12 | Cc1cccnc1NS(=O)(=O)c1ccc(N)cc1 | 0.26
13 | CCc1cnc(NS(=O)(=O)c2ccc(N)cc2)nc1 | 0.84
14 | Nc1ccc(S(=O)(=O)Nc2ncc(Cl)cc2Cl)cc1 | 1.97
15 | N#Cc1cccnc1NS(=O)(=O)c1ccc(N)cc1 | 0.15
16 | Nc1ccc(S(=O)(=O)Nc2ccccc2[N+](=O)[O-])cc1 | 1.76
17 | COc1ccccc1NS(=O)(=O)c1ccc(N)cc1 | 1.56
18 | Nc1ccc(S(=O)(=O)Nc2ncccc2Br)cc1 | 1.24
19 | Cc1cc(Br)cnc1NS(=O)(=O)c1ccc(N)cc1 | 2.05
20 | Cc1ccc(NS(=O)(=O)c2ccc(N)cc2)nc1 | 0.49
